What was measured:
[1] = molecular target: T1, human sphingosine-1-phosphate receptor 1 (S1P1) (Homo sapiens (Human), UniProt P21453); assay: Inhibition of cAMP production (HTRF cAMP HiRange), S1P1 CHO-K1 cells; format: cell-based; settings: for hS1P1 cAMP pEC50: inhibition of cAMP production, S1P1 CHO-K1 cells; for Emax: CHO-K1, efficacy (SPAN) normalized to fingolimod, read-out: hS1P1 cAMP SPAN
In short: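 CHO-K1 cells stably co-expressing human S1P1 (C-terminal Prolink tag) and EA-β-arrestin2 were grown in AssayComplete Media 6 at 37° C. and 5% CO2, plated, and incubated overnight. Agonist-driven inhibition of intracellular cAMP was read by TR-FRET with the HTRF cAMP HiRange kit on a PheraStar reader. Potency is pEC50, and efficacy (SPAN) is normalized to fingolimod.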
Target sequence in this assay (P21453 whole entry, looked up): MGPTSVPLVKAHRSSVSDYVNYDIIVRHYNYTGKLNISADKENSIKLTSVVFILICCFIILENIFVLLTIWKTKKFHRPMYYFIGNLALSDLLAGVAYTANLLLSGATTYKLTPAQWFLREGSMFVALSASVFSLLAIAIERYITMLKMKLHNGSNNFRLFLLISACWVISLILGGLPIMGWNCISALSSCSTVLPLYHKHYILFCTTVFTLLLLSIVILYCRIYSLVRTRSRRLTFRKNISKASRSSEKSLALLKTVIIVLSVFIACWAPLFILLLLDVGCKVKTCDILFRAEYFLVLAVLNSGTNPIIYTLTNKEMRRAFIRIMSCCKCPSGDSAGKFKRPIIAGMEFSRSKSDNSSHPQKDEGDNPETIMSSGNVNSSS

[2] = molecular target: T1, human sphingosine-1-phosphate receptor 1 (S1P1); assay: β-Arrestin2 recruitment assay (PathHunter), S1P1 CHO-K1 cells; format: cell-based; settings: for hS1P1 B-arrestin2 pEC50: β-arrestin2 recruitment, S1P1 CHO-K1 cells; for Emax: CHO-K1, efficacy (SPAN) normalized to fingolimod, read-out: hS1P1 B-arrestin2 SPAN
In short: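 Enzyme-fragment complementation read-out: agonist-driven β-arrestin2 binding to ProLink-tagged human S1P1 in stable CHO-K1 cells restores β-galactosidase, measured 1 h at room temperature after a 60 min 37° C. compound incubation. Potency as pEC50, efficacy relative to fingolimod (SPAN).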
Target sequence in this assay (P21453 whole entry, looked up): as above
Target sequence in this assay (P32121 whole entry partner, looked up): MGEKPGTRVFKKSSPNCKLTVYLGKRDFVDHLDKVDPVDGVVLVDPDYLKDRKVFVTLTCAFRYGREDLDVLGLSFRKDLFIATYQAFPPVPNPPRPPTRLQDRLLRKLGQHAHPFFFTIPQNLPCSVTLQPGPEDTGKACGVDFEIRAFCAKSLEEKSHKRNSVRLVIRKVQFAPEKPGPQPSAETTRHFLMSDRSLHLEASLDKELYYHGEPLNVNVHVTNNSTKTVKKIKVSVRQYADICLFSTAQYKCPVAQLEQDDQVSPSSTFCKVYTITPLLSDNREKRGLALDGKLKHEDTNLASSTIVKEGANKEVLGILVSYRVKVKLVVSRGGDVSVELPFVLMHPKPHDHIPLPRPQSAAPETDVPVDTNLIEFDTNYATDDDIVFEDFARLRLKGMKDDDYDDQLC

## CC(C)n1ccc2cc(-c3nc(-c4ccccc4F)ns3)ccc21 [Compound 374, 5-[3-(2-fluorophenyl)-1,2,4-thiadiazol-5-yl]-1-(propan-2-yl)-1H-indole]
[1]
  hS1P1 cAMP pEC50: <6.5
[2]
  hS1P1 B-arrestin2 pEC50: <5

## Fc1ccc(-c2noc(-c3ccc4c(c3)nnn4C3CCCC3)n2)cc1 [Compound 232, 1-cyclopentyl-5-[3-(4-fluorophenyl)-1,2,4-oxadiazol-5-yl]-1H-1,2,3-benzotriazole]
[1]
  Emax: < 75%
  hS1P1 cAMP pEC50: <6.5
[2]
  Emax: < 75%
  hS1P1 B-arrestin2 pEC50: <5

## CCC1(CC)CC(=O)c2cc(-c3ncc(-c4ccnc(O)c4)cn3)ccc2O1 [Compound 552, 2,2-diethyl-6-(5-(2-hydroxypyridin-4-yl)pyrimidin-2-yl)chroman-4-one]
[1]
  hS1P1 cAMP pEC50: <6.5
[2]
  hS1P1 B-arrestin2 pEC50: <5

## CCC1(CC)CC(=O)c2cc(-c3nc(-c4cc[nH]c4)no3)ccc2O1 [Compound 485, 6-(3-(1H-pyrrol-3-yl)-1,2,4-oxadiazol-5-yl)-2,2-diethylchroman-4-one]
[1]
  hS1P1 cAMP pEC50: >6.5
[2]
  hS1P1 B-arrestin2 pEC50: <5

## C=CCNc1ccc(-c2nc(-c3ccc4c(c3)CCC(=O)N4)no2)cc1C#N [Compound 61, 2-(allylamino)-5-(3-(2-oxo-1,2,3,4-tetrahydroquinolin-6-yl)-1,2,4-oxadiazol-5-yl)benzonitrile]
[1]
  Emax: > 75%
  hS1P1 cAMP pEC50: >6.5
[2]
  Emax: > 75%
  hS1P1 B-arrestin2 pEC50: >5

## CCC1(CC)CC(=O)c2cc(-c3nc(-c4ccncn4)no3)ccc2O1 [Compound 639, 2,2-diethyl-6-(3-(pyrimidin-4-yl)-1,2,4-oxadiazol-5-yl)chroman-4-one]
[1]
  hS1P1 cAMP pEC50: <6.5
[2]
  hS1P1 B-arrestin2 pEC50: <5

## COc1ccc(-c2noc(-c3ccc4c(c3)nnn4C3CCCCC3)n2)cc1C(F)(F)F [Compound 284, 1-cyclohexyl-5-{3-[4-methoxy-3-(trifluoromethyl)phenyl]-1,2,4-oxadiazol-5-yl}-1H-1,2,3-benzotriazole]
[1]
  Emax: < 75%
  hS1P1 cAMP pEC50: <6.5
[2]
  Emax: < 75%
  hS1P1 B-arrestin2 pEC50: <5

## CNc1ccccc1-c1nc(-c2ccc3c(c2)nnn3C(C)C)no1 [Compound 599, N-methyl-2-{3-[1-(propan-2-yl)-1H-1,2,3-benzotriazol-5-yl]-1,2,4-oxadiazol-5-yl}aniline]
[1]
  Emax: < 75%
  hS1P1 cAMP pEC50: >6.5
[2]
  Emax: > 75%
  hS1P1 B-arrestin2 pEC50: >5

## C=C(F)CNc1ccc(-c2nc(-c3ccc4c(c3)CCC(=O)N4)no2)cc1C#N [Compound 346, 2-[(2-fluoroprop-2-en-1-yl)amino]-5-[3-(2-oxo-1,2,3,4-tetrahydroquinolin-6-yl)-1,2,4-oxadiazol-5-yl]benzonitrile]
[1]
  Emax: > 75%
  hS1P1 cAMP pEC50: >6.5
[2]
  Emax: > 75%
  hS1P1 B-arrestin2 pEC50: >5

## COc1cccc(-c2coc(-c3ccc4c(c3)nnn4C(C)C)n2)c1 [Compound 385, 5-[4-(3-methoxyphenyl)-1,3-oxazol-2-yl]-1-(propan-2-yl)-1H-1,2,3-benzotriazole]
[1]
  Emax: < 75%
  hS1P1 cAMP pEC50: <6.5
[2]
  Emax: > 75%
  hS1P1 B-arrestin2 pEC50: <5

## CCCC1(CCC)CC(=O)c2cc(-c3nc(-c4cccnc4)no3)ccc2O1 [Compound 218, 2,2-dipropyl-6-[3-(pyridin-3-yl)-1,2,4-oxadiazol-5-yl]-3,4-dihydro-2H-1-benzopyran-4-one]
[1]
  hS1P1 cAMP pEC50: <6.5
[2]
  hS1P1 B-arrestin2 pEC50: <5

## CCCn1nnc2cc(-c3nc(-c4cccc(C(F)(F)F)c4)no3)ccc21 [Compound 242, 1-propyl-5-{3-[3-(trifluoromethyl)phenyl]-1,2,4-oxadiazol-5-yl}-1H-1,2,3-benzotriazole]
[1]
  Emax: < 75%
  hS1P1 cAMP pEC50: <6.5
[2]
  Emax: < 75%
  hS1P1 B-arrestin2 pEC50: <5

## O=C1CC(CO)(CO)Oc2ccc(-c3nc(-c4ccncc4)no3)cc21 [Compound 482, 2,2-bis(hydroxymethyl)-6-[3-(pyridin-4-yl)-1,2,4-oxadiazol-5-yl]-3,4-dihydro-2H-1-benzopyran-4-one]
[1]
  hS1P1 cAMP pEC50: <6.5
[2]
  hS1P1 B-arrestin2 pEC50: <5

## COc1ccc(-c2nc(-c3ccc4c(c3)nnn4C3CCCC3)no2)cc1OC [Compound 275, 3-(1-cyclopentyl-1H-benzo[d][1,2,3]triazol-5-yl)-5-(3,4-dimethoxyphenyl)-1,2,4-oxadiazole]
[1]
  Emax: < 75%
  hS1P1 cAMP pEC50: <6.5
[2]
  Emax: < 75%
  hS1P1 B-arrestin2 pEC50: <5

## COc1ccc2oc(-c3ccc4c(c3)nnn4CC(C)C)nc2c1 [Compound 451, 2-(1-isobutyl-1H-benzo[d][1,2,3]triazol-5-yl)-5-methoxybenzo[d]oxazole]
[1]
  Emax: < 75%
  hS1P1 cAMP pEC50: >6.5
[2]
  Emax: < 75%
  hS1P1 B-arrestin2 pEC50: >5

## CC(C)n1ccc2cc(-c3noc(-c4ccccc4F)n3)ccc21 [Compound 387, 5-(2-fluorophenyl)-3-(1-isopropyl-1H-indol-5-yl)-1,2,4-oxadiazole]
[1]
  hS1P1 cAMP pEC50: <6.5
[2]
  hS1P1 B-arrestin2 pEC50: >5

## c1ccc(-c2noc(-c3ccc4[nH]nnc4c3)n2)cc1 [Compound 113, 5-(3-phenyl-1,2,4-oxadiazol-5-yl)-1H-1,2,3-benzotriazole]
[1]
  hS1P1 cAMP pEC50: <6.5
[2]
  hS1P1 B-arrestin2 pEC50: <5

## CC(C)n1nnc2cc(-c3nc(-c4ccccc4Cl)no3)ccc21 [Compound 17, 5-[3-(2-chlorophenyl)-1,2,4-oxadiazol-5-yl]-1-(propan-2-yl)-1H-1,2,3-benzotriazole]
[1]
  hS1P1 cAMP pEC50: >6.5
[2]
  hS1P1 B-arrestin2 pEC50: >5

## COc1ccc(-c2coc(-c3ccc4c(c3)nnn4C(C)C)n2)cc1 [Compound 250, 5-[4-(4-methoxyphenyl)-1,3-oxazol-2-yl]-1-(propan-2-yl)-1H-1,2,3-benzotriazole]
[1]
  Emax: < 75%
  hS1P1 cAMP pEC50: <6.5
[2]
  Emax: < 75%
  hS1P1 B-arrestin2 pEC50: <5

## CC1CC(=O)c2ccc(-c3nc(-c4cccnc4)no3)cc2O1 (centres unmarked) [Compound 535, 2-methyl-7-[3-(pyridin-3-yl)-1,2,4-oxadiazol-5-yl]-3,4-dihydro-2H-1-benzopyran-4-one]
[1]
  hS1P1 cAMP pEC50: <6.5
[2]
  hS1P1 B-arrestin2 pEC50: >5

## Cc1ccncc1-c1noc(-c2ccc3c(c2)nnn3C(C)C)n1 [Compound 101, 5-[3-(4-methylpyridin-3-yl)-1,2,4-oxadiazol-5-yl]-1-(propan-2-yl)-1H-1,2,3-benzotriazole]
[1]
  Emax: > 75%
  hS1P1 cAMP pEC50: >6.5
[2]
  Emax: > 75%
  hS1P1 B-arrestin2 pEC50: >5

## Oc1ccc(-c2noc(-c3ccc4c(c3)nnn4C3CCCC3)n2)cc1 [Compound 13, 4-[5-(1-cyclopentyl-1H-1,2,3-benzotriazol-5-yl)-1,2,4-oxadiazol-3-yl]phenol]
[1]
  hS1P1 cAMP pEC50: >6.5
[2]
  hS1P1 B-arrestin2 pEC50: >5

## COc1ccc(-c2noc(-c3ccc4c(c3)nnn4C(C)C)n2)c2ccccc12 [Compound 129, 5-[3-(4-methoxynaphthalen-1-yl)-1,2,4-oxadiazol-5-yl]-1-(propan-2-yl)-1H-1,2,3-benzotriazole]
[1]
  Emax: < 75%
  hS1P1 cAMP pEC50: <6.5
[2]
  Emax: < 75%
  hS1P1 B-arrestin2 pEC50: <5

## COc1ccccc1-c1nnc(-c2ccc3c(c2)nnn3C(C)C)o1 [Compound 35, 5-[5-(2-methoxyphenyl)-1,3,4-oxadiazol-2-yl]-1-(propan-2-yl)-1H-1,2,3-benzotriazole]
[1]
  hS1P1 cAMP pEC50: <6.5
[2]
  hS1P1 B-arrestin2 pEC50: <5

## Fc1cc(-c2noc(-c3ccc4c(c3)nnn4C3CCCC3)n2)ccc1C(F)(F)F [Compound 1, 1-cyclopentyl-5-{3-[3-fluoro-4-(trifluoromethyl)phenyl]-1,2,4-oxadiazol-5-yl}-1H-1,2,3-benzotriazole]
[1]
  hS1P1 cAMP pEC50: <6.5
[2]
  hS1P1 B-arrestin2 pEC50: <5

## N#Cc1cc(-c2nnc(-c3ccc4c(c3)CCC(=O)N4)o2)ccc1NCC1CC1 [Compound 475, 2-[(cyclopropylmethyl)amino]-5-[5-(2-oxo-1,2,3,4-tetrahydroquinolin-6-yl)-1,3,4-oxadiazol-2-yl]benzonitrile]
[1]
  hS1P1 cAMP pEC50: >6.5
[2]
  hS1P1 B-arrestin2 pEC50: >5

## CCC1(CC)CC(=O)c2cc(-c3nc(-c4ccc(C)cc4)no3)ccc2O1 [Compound 269, 2,2-diethyl-6-[3-(p-tolyl)-1,2,4-oxadiazol-5-yl]chroman-4-one]
[1]
  Emax: < 75%
  hS1P1 cAMP pEC50: <6.5
[2]
  Emax: < 75%
  hS1P1 B-arrestin2 pEC50: <5
